Where two headings read alike, the source gives them in different places.
How the values were obtained:
[1] = molecular target: T1, human type 1 glycine transporter (GlyT1) (Homo sapiens, UniProt P48067); test: Glycine uptake inhibition experiment ([3H] glycine uptake in T98G cells); assay type: cell-based; details: [3H] glycine 250 nM, read-out: IC50 (glycine uptake inhibiting activity)
T1 construct: Used in the experiment were T98G cells (glioma cells) developing a human type 1 glycine transporter (GlyT1); endogenous in cells; host or cells: T98G human glioma cells
T1 sequence (P48067 1-706): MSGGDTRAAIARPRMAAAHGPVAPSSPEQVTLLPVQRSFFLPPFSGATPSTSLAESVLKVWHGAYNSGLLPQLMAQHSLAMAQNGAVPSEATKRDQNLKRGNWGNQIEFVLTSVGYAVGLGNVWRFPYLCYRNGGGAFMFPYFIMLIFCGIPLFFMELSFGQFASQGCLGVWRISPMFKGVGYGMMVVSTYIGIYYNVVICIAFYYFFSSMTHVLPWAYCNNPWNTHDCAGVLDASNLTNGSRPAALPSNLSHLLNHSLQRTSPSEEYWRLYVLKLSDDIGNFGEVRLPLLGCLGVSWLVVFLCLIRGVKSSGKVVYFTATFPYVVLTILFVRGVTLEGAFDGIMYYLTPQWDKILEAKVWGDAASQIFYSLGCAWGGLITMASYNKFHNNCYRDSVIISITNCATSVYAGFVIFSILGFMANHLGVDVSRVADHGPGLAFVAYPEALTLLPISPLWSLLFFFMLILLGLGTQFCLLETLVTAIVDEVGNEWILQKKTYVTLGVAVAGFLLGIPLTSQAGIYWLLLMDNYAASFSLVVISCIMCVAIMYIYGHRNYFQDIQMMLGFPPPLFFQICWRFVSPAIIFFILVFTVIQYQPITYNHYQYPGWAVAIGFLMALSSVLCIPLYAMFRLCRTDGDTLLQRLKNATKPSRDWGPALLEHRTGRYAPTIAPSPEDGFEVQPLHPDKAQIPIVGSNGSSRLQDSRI
Procedure: A glycine uptake inhibition experiment was conducted in accordance with the method described in Neuron, 8, 927-935, 1992. Used in the experiment were T98G cells (glioma cells) developing a human type 1 glycine transporter (GlyT1). The T98G cells were seeded in a 96-well plate at a density of 2.0×10^4 cells per well and cultured overnight in a CO2 incubator. The test substance was first dissolved in a 100% DMSO solution and then dissolved in a 10 mM HEPES buffer solution (pH 7.4) supplemented with 150 mM sodium chloride, 1 mM calcium chloride, 5 mM potassium chloride, 1 mM magnesium chloride, 10 mM glucose, and 0.2% bovine serum albumin. After removing the cell culture medium, the test substance was subjected to a 10-min pretreatment. Thereafter, the test substance and [^3H] glycine (final concentration: 250 nM) were added to the cells and reaction was performed at room temperature for 15 minutes. After the end of the reaction, the extracellular fluid was aspirated with a manifold to remove the excess marker glycine present outside of the cells; thereafter, the cells were lysed with an aqueous solution of 0.5 M sodium hydroxide. The glycine content in the cells was determined by measuring the radioactivity in the cell lysate with a liquid scintillation counter. With the amount of glycine uptake in the presence of 10 μM ALX5407 being referred to as the nonspecific uptake, the amount of specific uptake was calculated by subtracting the amount of nonspecific uptake from the total amount of uptake in the absence of 10 μM ALX5407. In addition, glycine uptake inhibiting activity (IC50) was calculated from an inhibition curve for the concentration of the test substance ranging from 10^−9 to 10^−5 M.

[2] = Membrane permeability experiment (PAMPA Evolution); assay type: in vitro ADME; details: artificial lipid GIT-0, pH 4.0, 5.0, 6.2 and 7.4, marker metoprolol
Procedure: In the development of pharmaceuticals, membrane permeability is an important factor to consider from the viewpoint of relationship with the bodily absorption of a medicament to be administered orally. Compounds having high membrane permeability are expected to feature satisfactory absorption by the intestinal tract (see Pharmaceutical Research (2002) Vol. 19, No. 7, 921-925.)
A membrane permeability test was conducted using PAMPA Evolution™ (pION INC.) in accordance with a modified version of the recommended protocol of pION INC. To be more specific, solutions of an assay compound (i.e., a DMSO solution of the compound as diluted by being added to system solutions that had been adjusted to prescribed pHs (4.0, 5.0, 6.2, and 7.4)) were prepared and added to the lower compartment (donor) of a sandwich plate having a lipid bilayer membrane formed of an artificial lipid (GIT-0). An acceptor sink buffer was added to the upper compartment (acceptor) and after the lapse of a prescribed period, the cumulative permeation of the compound was measured by performing UV spectroscopy on the solutions in the donor and acceptor, and the membrane permeability coefficient Pe (×10^−6 cm/sec) was calculated to assay the membrane permeability of the compound.

Row | SMILES | IC50 ([1]; 15 min, room temperature) [µM] | IC50 [1] [µM] | membrane permeability coefficient Pe compared with metoprolol [2]
1 | Cn1cnc(C(=O)N(CCC2CCOCC2)Cc2cccc(OC(F)(F)F)c2)c1 [Compound 1] | 0.0195 | < 0.1 | 
2 | Cn1cnc(C(=O)N(Cc2cccc(OC(F)(F)F)c2)CC2CCOCC2)c1 [Compound 2] | 0.0345 | < 0.1 | higher Pe values than the high permeability marker compound metoprolol
3 | Cn1cc(C(=O)N(Cc2cccc(OC(F)(F)F)c2)C2CCOCC2)nc1Br [Compound 6] |  | ≥ 1 | 
4 | Cc1nc(C(=O)N(Cc2cccc(OC(F)(F)F)c2)C2CCOCC2)c[nH]1 [Compound 8] |  | ≥ 1 | 
5 | Cc1nc(C(=O)N(Cc2cccc(OC(F)(F)F)c2)C2CCOCC2)cn1C [Compound 9] |  | ≥ 1 | 
6 | O=C(c1cn(C2CC2)cn1)N(Cc1cccc(OC(F)(F)F)c1)C1CCOCC1 [Compound 12] |  | ≥ 1 | higher Pe values than the high permeability marker compound metoprolol
7 | CCn1cnc(C(=O)N(Cc2cccc(OC(F)(F)F)c2)C2CCOCC2)c1 [Compound 13] | 0.0031 | < 0.1 | 
8 | O=C(c1cn(CC(F)(F)F)cn1)N(Cc1cccc(OC(F)(F)F)c1)C1CCOCC1 [Compound 14] |  | ≥ 1 | 
9 | Cn1cnc(C(=O)N(Cc2cccc(Cl)c2)C2CCOCC2)c1 [Compound 15] | 0.0135 | < 0.1 | higher Pe values than the high permeability marker compound metoprolol
10 | O=C(c1nc[nH]n1)N(Cc1cccc(OC(F)(F)F)c1)C1CCOCC1 [Compound 19] |  | ≥ 1 | 
11 | COCCn1cnc(C(=O)N(Cc2cccc(OC(F)(F)F)c2)C2CCOCC2)c1 [Compound 20] |  | ≥ 1 | 
12 | COc1cccc(CN(C(=O)c2cn(C)cn2)C2CCOCC2)c1 [Compound 23] |  | < 0.1 | 
13 | Cn1cnc(C(=O)N(Cc2ccc(F)c(C(F)(F)F)c2)C2CCOCC2)c1 [Compound 25] | 0.0041 | < 0.1 | 
14 | O=C(c1nc[nH]n1)N(Cc1cccc(Cl)c1)C1CCOCC1 [Compound 28] |  | ≥ 1 | 
15 | O=C(c1nc[nH]n1)N(Cc1ccc(F)c(Cl)c1)C1CCOCC1 [Compound 29] |  | ≥ 1 | 
16 | O=C(c1nc[nH]n1)N(Cc1ccc(F)c(C(F)(F)F)c1)C1CCOCC1 [Compound 30] |  | ≥ 1 | 
17 | CCn1cnc(C(=O)N(Cc2cccc(OC(F)(F)F)c2)C2CCOCC2)n1 [Compound 31] | 0.0106 | < 0.1 | 
18 | Cn1cnc(C(=O)N(CCOc2ccc(Cl)cc2)C2CCOCC2)c1 [Compound 36] |  | < 0.1 | 
19 | Cn1cnc(C(=O)N(CCOc2ccc(Cl)c(Cl)c2)C2CCOCC2)c1 [Compound 39] |  | < 0.1 | 
20 | Cn1cnc(C(=O)N(Cc2cc(F)cc(C(F)(F)F)c2)C2CCOCC2)c1 [Compound 42] | 0.0269 | < 0.1 | 
21 | Cn1cnc(C(=O)N(Cc2ccc(-c3ccccc3)cc2)C2CCOCC2)c1 [Compound 44] |  | ≥ 1 | 
22 | CCn1cnc(C(=O)N(Cc2ccc(F)c(C(F)(F)F)c2)C2CCOCC2)n1 [Compound 45] | 0.0326 | < 0.1 | 
23 | Cn1cnc(C(=O)N(CCc2ccccc2Cl)C2CCOCC2)n1 [Compound 47] |  | ≥ 1 | 
24 | Cn1cnc(C(=O)N(Cc2ccc(OC(F)(F)F)cc2)C2CCOCC2)n1 [Compound 52] |  | ≥ 1 | 
25 | Cn1cnc(C(=O)N(Cc2cccc(I)c2)C2CCOCC2)n1 [Compound 53] | 0.0382 | < 0.1 | 

Row | SMILES | IC50 ([1]; 15 min, room temperature) [µM] | IC50 [1] [µM] | membrane permeability coefficient Pe compared with metoprolol [2]
26 | Cn1cnc(C(=O)N(Cc2ccc(F)c(Br)c2)C2CCOCC2)n1 [Compound 57] | 0.0459 | < 0.1 | 
27 | Cn1cnc(C(=O)N(Cc2cc(OC(F)(F)F)ccc2F)C2CCOCC2)n1 [Compound 63] |  | ≥ 1 | 
28 | Cn1cnc(C(=O)N(Cc2cccc(OC(F)F)c2)C2CCOCC2)n1 [Compound 67] | 0.0422 | < 0.1 | 
29 | Cn1cnc(C(=O)N(Cc2ccc(OC(F)F)c(OC(F)F)c2)C2CCOCC2)n1 [Compound 68] |  | ≥ 1 | 
30 | Cn1cnc(C(=O)N(Cc2ccc(Cl)c(OC(F)(F)F)c2)C2CCOCC2)n1 [Compound 69] | 0.0298 | < 0.1 | 
31 | Cn1cnc(C(=O)N(Cc2cc(Cl)cc(OC(F)(F)F)c2)C2CCOCC2)n1 [Compound 73] | 0.0189 | < 0.1 | 
32 | O=C(c1ncn(C(F)F)n1)N(Cc1cccc(OC(F)(F)F)c1)C1CCOCC1 [Compound 75] |  | ≥ 1 | 
33 | COC(=O)c1cccc(-c2cc(CN(C(=O)c3ncn(C)n3)C3CCOCC3)ccc2F)c1 [Compound 77] | 0.0105 | < 0.1 | 
34 | Cn1cnc(C(=O)N(Cc2ccc(F)c(-c3cccc(CO)c3)c2)C2CCOCC2)n1 [Compound 78] |  | < 0.1 | 
35 | Cn1cnc(C(=O)N(Cc2ccc(F)c(-c3ccccc3F)c2)C2CCOCC2)n1 [Compound 88] | 0.0451 | < 0.1 | 
36 | CCCOc1cccc(-c2cc(CN(C(=O)c3ncn(C)n3)C3CCOCC3)ccc2F)c1 [Compound 93] | 0.0418 | < 0.1 | 
37 | Cn1cnc(C(=O)N(Cc2ccc(F)c(-c3cccc(CO)c3)c2)C2CCOCC2)c1 [Compound 94] | 0.0076 | < 0.1 | 
38 | Cn1cnc(C(=O)N(Cc2ccc(F)c(-c3cccc(CCC#N)c3)c2)C2CCOCC2)c1 [Compound 101] | 0.0411 | < 0.1 | 
39 | Cn1cnc(C(=O)N(Cc2ccc(F)c(Br)c2)C2CCOCC2)c1 [Compound 102] | 0.0038 | < 0.1 | 
40 | Cn1cnc(C(=O)N(Cc2ccc(F)c(-c3ccc(C(F)(F)F)cc3)c2)C2CCOCC2)c1 [Compound 104] | 0.0272 | < 0.1 | 
41 | Cc1ccc(-c2cc(CN(C(=O)c3cn(C)cn3)C3CCOCC3)ccc2F)cc1 [Compound 105] | 0.0162 | < 0.1 | 
42 | COC(=O)C(Cc1cccc(OC(F)(F)F)c1)N(C(=O)c1cn(C)cn1)C1CCOCC1 (stereo not shown) [Compound 107] | 0.03 | < 0.1 | 
43 | Cn1cnc(C(=O)N(C2CCOCC2)C(c2ccccc2)c2ccccc2)c1 [Compound 108] |  | ≥ 1 | 
44 | Cn1cnc(C(=O)N(Cc2ccc(F)c(Br)c2)C2CCOC(C)(C)C2)c1 (stereo not shown) [Compound 110] |  |  | higher Pe values than the high permeability marker compound metoprolol
45 | CC1CC(N(Cc2ccc(F)c(Br)c2)C(=O)c2cn(C)cn2)CC(C)O1 (stereo not shown) [Compound 111] |  | ≥ 1 | 
46 | Cn1cnc(C(=O)N(Cc2ccc(F)c(-c3ccc(OC(F)(F)F)cc3)c2)C2CCSCC2)c1 [Compound 112] | 0.0203 | < 0.1 | 
47 | Cn1cnc(C(=O)N(Cc2cccc(C(F)(F)F)c2)C2CCSCC2)c1 [Compound 113] | 0.0071 | < 0.1 | 
48 | Cn1cnc(C(=O)N(Cc2ccc(F)c(-c3ccc(F)cc3)c2)C2CCSCC2)c1 [Compound 114] | 0.0164 | < 0.1 | 
49 | Cn1cnc(C(=O)N(Cc2cccc(C(F)(F)F)c2)C2CCS(=O)(=O)CC2)c1 [Compound 117] |  | ≥ 1 | 
50 | Cc1cc(CN(C(=O)c2cn(C)cn2)C2CCSCC2)cc(OC(F)(F)F)c1 [Compound 118] | 0.0113 | < 0.1 | 

Reference: US8623898B2, “Glycine transporter inhibiting substances” (Taisho Pharmaceutical Co., Ltd., priority 2009, dated 2014)
